Measurements as given in PubChem BioAssay (NCI).
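Method: 48-hour compound exposure of cells in 96-well plates, five concentrations, linear interpolation of endpoints. TGI: concentration producing complete growth inhibition.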

Tests used:
Test in all cases: NCI-60 cell line screen, 48 h
CAKI-1 renal = tested on: CAKI-1 renal
LOX IMVI melanoma = tested on: LOX IMVI melanoma
M14 melanoma = tested on: M14 melanoma
MDA-MB-435 = tested on: MDA-MB-435
NCI-H23 lung = tested on: NCI-H23 lung
OVCAR-5 ovarian = tested on: OVCAR-5 ovarian
RXF 393 renal = tested on: RXF 393 renal
SF-539 CNS = tested on: SF-539 CNS
SNB-19 CNS = tested on: SNB-19 CNS
T-47D breast = tested on: T-47D breast

Row | SMILES | TGI (CAKI-1 renal) [µM] | TGI (LOX IMVI melanoma) [µM] | TGI (M14 melanoma) [µM] | TGI (MDA-MB-435) [µM] | TGI (NCI-H23 lung) [µM] | TGI (OVCAR-5 ovarian) [µM] | TGI (RXF 393 renal) [µM] | TGI (SF-539 CNS) [µM] | TGI (SNB-19 CNS) [µM] | TGI (T-47D breast) [µM]
1 | Nc1c(S(=O)(=O)O)cc(Nc2cccc(S(=O)(=O)/C=C/S(=O)(=O)O)c2)c2c1C(=O)c1ccccc1C2=O | > 100 | > 100 | > 100 | > 100 | > 100 | > 100 | > 100 | > 100 | > 100 | > 100
2 | Cc1c(F)c(N)c2c(=O)cc(-c3ccc(NC(=O)C(N)CCCN=C(N)N)c(F)c3)oc2c1F (stereo not given) | 3.32 | > 100 | 97.1 | > 83.6 | > 73.8 | > 50 | 59.3 | 40.7 | > 100 | > 100
3 | O=C(NN1C(=O)C=CC1=O)c1ccccc1Nc1ccccc1C(=O)NN1C(=O)C=CC1=O | > 100 | > 100 | > 100 | > 100 | > 100 | > 100 | > 100 | > 100 | > 100 | > 100
4 | Cc1cccc2c1C/C(=C\c1cccc(C)c1C(=O)O)C2=O | > 100 | > 100 | > 100 | > 100 | > 100 | > 100 | > 100 | > 100 | > 100 | > 100
5 | Cc1n(CC(=O)c2ccccc2)nc2sc(N)n[n+]12 | > 100 | > 100 | > 100 | > 100 | > 100 | > 100 | > 100 | > 100 | > 100 | > 100
6 | CN(C)CCOC1(CC2CCCCC2)CCC(C(C)(C)C)CC1 (stereo not given) | 19.1 | 6.79 | 4.61 | 13.8 | 21.8 | 17.5 | 8.96 | 10.6 | 21.9 | 13.6
7 | C[C@H](CCC1=NCCN1)[C@H]1CC[C@H]2[C@@H]3CC[C@@H]4C[C@H](O)CC[C@]4(C)[C@H]3C[C@H](O)[C@]12C | 43.8 | 29.3 | 35.6 | 28.9 | 27 | 28.1 | 35.9 | 29.5 | 21 | 30.6
8 | Nc1nc2cc(CNc3ccc(C(=O)NC(CCC(=O)O)C(=O)O)cc3)ccc2nc1-c1ccccc1 (stereo not given) | > 10 | > 10 | > 10 | > 10 | > 10 | > 10 | > 10 | > 10 | > 10 | > 10
9 | COc1ccc(/C=N/n2c(Cc3ccc(Cl)cc3)n[nH]c2=O)c(OC)c1 | > 100 | > 100 | > 100 | > 100 | > 100 | > 100 | 41.7 | > 100 | 48.4 | > 100
10 | CC(=O)NC1=C(C)C(=O)c2c(nc3n2CC[C@H]3OC(C)=O)C1=O | 8.22 | 2.11 | 4.01 | 1.85 | 8.41 | 7.34 | 3.12 | 4.38 | 10.8 | 1.37
11 | CC(=N\N=C\c1ccccn1)/C(C)=N/N=C(C)/C(C)=N/N=C(C)/C(C)=N/N=C/c1ccccn1 | > 100 | > 100 | > 100 | > 100 | > 100 | > 100 | > 100 | > 100 | > 100 | > 100
12 | CC(C)(C)c1cc(C2COC(=O)COCC(=O)OCCOCCOCCO2)cc(C(C)(C)C)c1O (stereo not given) | 51.3 | > 80.2 | 41.3 | 43 | > 100 | > 100 | 41.3 | > 79.7 | > 100 | > 100
13 | O=C1O[C@]2(c3ccccc3)C(c3ccccc3)=C[C@]2(C(=O)c2ccccc2)C1=O | > 100 | 79 | > 100 | > 100 | > 100 | > 100 | 5.13 | 50.8 | > 100 | > 100
